Experiments:
[1] = system: pDCs; experiment: IFN-α production by purified pDCs stimulated with peptide-DNA complexes; assay type: cell-based, human; settings: 24 h, ELISA; for IFN-α response of pDCs to peptide alone: peptide without DNA
Description: Buffy-coats from HD were from Centro Trasfusionale, Policlinico Umberto I, Rome, IT. After separation of mononuclear cells by Ficoll centrifugation, pDCs were purified as described, by using the Diamond Plasmacytoid Dendritic Cell Isolation Kit (Miltenyi Biotec, Bergisch Gladbach, Germany) to obtain 99% purity. Purified pDCs were seeded into 96-well round-bottom plates at 3.5/5 × 10^4 cells per well in 200 μL RPMI 1640 (GIBCO), supplemented with 10% fetal calf serum (FCS), 1% Hepes and 1% sodium pyruvate. LL37, cit-LL37 and carb-LL37 were premixed with total human genomic DNA (extracted from PBMC of HD, see below) (15 μg/mL). After 15 min incubation at room temperature the mix was added to the pDC cultures. IFN-α in supernatants was measured by ELISA (MabTech, Stockholm, Sweden), after 24 h (according to the manufacturer’s instructions).
Human DNA was extracted from PBMCs, as reported and was fragmented by sonication. Five milligrams of DNA in a volume of 300 μL were fragmented using the Sonics Vibra Cell sonicator (Newtown, CT, USA), with the following settings: 2, 4 and 10 sonication cycles (30 s on, 30 s off, in ice) to obtain DNA fragment sizes between 100 and 1000 bp. The resulting size distribution was controlled by 2% agarose gel electrophoresis.

[2] = Net charge of the peptides; assay type: physicochemical
[3] = system: SLE CD4 T-cells; experiment: T-cell proliferation (BrdU incorporation, flow cytometry); assay type: cell-based, human; settings: for SLE patients responding by T-cell proliferation: BrdU, positive if SI > 3, carb-LL37 8 of 25, native LL37 17 of 31, cit-LL37 16 of 31 SLE patients
Description: PBMCs were purified from EDTA-treated blood, on Ficoll-Hypaque (Pharmacia Fine Chemicals, Uppsala, Sweden) and were incubated (10^5 cells/well) in 96-well-flat-bottom-microplates (BD) in T-cell-medium (RPMI 1640, 10% heat-inactivated human serum, HS, Gibco), 2 mM L-glutamine, 10 U/mL penicillin and 100 μg/mL streptomycin), with/without peptides. We performed assays on fresh cells, within 1-to-3 h from collection or on PBMCs frozen in 90% FCS−10% DMSO, whose viability we assessed by Trypan blue exclusion, with an inverted microscope. Recovery of live cells was between 65 and 85% of the frozen number. At day 3 and 5, BrdU was added (1 μg/mL). BrdU-incorporation was detected by APC-labeled anti-BrdU antibody (BD Pharmingen), after surface staining for CD4, CD3, CD8 and analyzed by flow cytometry (Gallios, BeckmanCoulter, Brea, CA, USA). Internal control for T-cell viability and proliferation was PHA treatment (2 μg/mL). SI for proliferation was calculated by dividing percent of BrdU-staining in the presence of each peptide antigen (LL37, carb-LL37, cit-LL37, LL37 reverse, REV; cit-LL37 reverse, cit-REV; carb-LL37 reverse, carb-REV) by the percent obtained in the untreated cells. SI for proliferation was considered positive when the values of percent of BrdU positive cells was three times higher than the values obtained with the control peptides (SI > 3). Assays were repeated twice with each patient. In rare cases in which background proliferation (culture with REV, cit-REV, carb-REV), exceeded antigen-specific proliferation (that is response to LL37, carb-LL37, cit-LL37), the assay was repeated three times. Concomitant phenotype analysis of LL37-responder T-cells included staining for CD3, CD4, CD8, CXCR5 (CXCR5 was assessed on BrdU/CD3/CD4-positive cells).
Differences between mean values were assessed by Wilcoxon’s matched-pair signed rank test, to compare responses to antigens and control antigens in the same donor. We used Mann-Whitney test for comparison of T-cell and antibody responses between groups of patients and HD. Statistical significance was set at p < 0.05. Correlation analyses were performed by Spearman’s rank-correlation test. Data were analyzed by GraphPad Prism 7.0 or SPSS software.

[4] = system: memory B-cells; experiment: Maturation of purified B-cells into plasma cells, flow cytometry; assay type: cell-based, human; settings: 7 days; for Stimulation of B-cells to mature into plasma cells, peptide-DNA complex: peptide premixed with DNA (15 μg/mL), hrIL-2 50 UI/mL; for Plasma cells (CD38highCD27highCD19neg): hrIL-2 50UI/ml
Description: PBMCs were isolated by Ficoll-Paque centrifugation (as described above). Total B-cells were isolated by using the Human B-Cell Isolation Kit II, (Miltenyi Biotec, Bergisch Gladbach, Germany), from fresh PBMCs. The purity of B-cells was verified by flow cytometry using the monoclonal anti-human CD19 fluorescein isothiocyanate (FITC). The percentage of memory B-cells was assessed by flow cytometry using monoclonal anti-human CD19 fluorescein, anti-human CD27 allophycocyanin and anti-human CD38 Pacific Blue antibodies (BD Biosciences, San Jose, CA, USA). The majority of B-cells (>80%) were memory cells expressing CD19/CD27 and low CD38 [29].
LL37/cit-LL37/carb-LL37 were each premixed with DNA (15 μg/mL) and added to the B-cell cultures in RMPI 10% FCS, after a 15-min incubation at room temperature. At day 2, hrIL-2 at 50UI/mL was added to the cultures, which were kept in the incubator for 7 days.
Maturation of B-cells into plasma cells was investigated after 7 days culture by flow cytometry (Gallios, BeckmanCoulter, Brea, CA, USA) following surface staining with the following monoclonal antibodies: anti-human CD19 fluorescein-, CD27 allophycocyanin-, CD38 Pacific Blue-conjugated (BD Biosciences, CA, USA). Analysis of the FCS files was performed by FlowJo (BD, San Jose, CA, USA) or by Kaluza (Beckman Coulter, Indianapolis, IN, USA).

[5] = system: native LL37-P1-specific T-cells (HLA-DRB5*0101 tetramer); experiment: Peptide-MHC-tetramer staining of T-cells after PBMC stimulation; assay type: cell-based, human; settings: 6 days stimulation, CD38hi CD4 T-cells; for Control (Ctr-B5) tetramer positive T-cells: Ctr-B5 tetr, lower panels Figure S6; for LL37-specific T-cells (LL37-B5 tetramer positive): LL37-B5 tetr, upper panels Figure S6
Description: Peptide-MHC-tetramers were from ImmunAware (Denmark). Staining was performed for 40 min with 1microL of tetramer suspension at 37 °C, followed by staining for CD4 (4 °C, 20 min), without washing. After incubation with anti-CD4 antibody, cells were washed, resuspended in PBS and kept at 4 °C. Before flow cytometry-acquisition, cells were labeled with PercP-conjugated 7-AAD to exclude dead cells. The peptide-MHC-tetramers used in this study are: the HLA-DR15-P1: tetramer of HLA-DRB1*1501 LLGDFFRKSKEKIGK (corresponding to the first aa at the NH2-term of the mature native LL37), (PE-conjugated) and the control peptide-MHC-tetramer called DR15-ctr: tetramer of HLA-DRB1*1501 […]1-169-185 (PE-conjugated). The other couple of peptide-MHC-tetramers used were HLA-DRB5*0101 loaded with the same LL37 epitope as above and the control tetramer HLA-DRB5*0101 loaded with the control epitope PVSKMRMATPLLMQA (CLIP-derived).

| Substance | IFN-I/IFN-α production by pDCs, peptide-DNA complex ([1]; peptide premixed with human DNA (15 μg/mL)) | IFN-α response of pDCs to peptide alone [1] | Net charge [2] | SLE patients responding by T-cell proliferation [3] [%] | Stimulation of B-cells to mature into plasma cells, peptide-DNA complex [4] | Control (Ctr-B5) tetramer positive T-cells [5] [%] | LL37-specific T-cells (LL37-B5 tetramer positive) [5] [%] | Proliferation of SLE CD4 T-cells ([3]; BrdU incorporation, stimulation index, Wilcoxon's test) | BrdU-positive CD3+CD4+ T-cells ([3]; BrdU staining, representative zebra plot, Figure S5a) [%] | Correlation of T-cell responses to carb-LL37 and native LL37 ([3]; SI, Spearman, Figure 3b) | Correlation of T-cell proliferation with SLEDAI or autoantibodies to LL37 ([3]; SI, Spearman, Figure 4a,b) | Antigen efficiency compared to cit-LL37 ([3]; SLE cohort analyzed) | Plasma cells (CD38highCD27highCD19neg) ([4]; 10 µM peptide + DNA, Figure S9b) [%] | Plasma cells (CD38highCD27highCD19neg) ([4]; 10 µM peptide alone, Figure S9a) [%] | Plasma cells (CD38highCD27highCD19neg) ([4]; 20 µM peptide + DNA, Figure S9c) [%] |
| --- | --- | --- | --- | --- | --- | --- | --- | --- | --- | --- | --- | --- | --- | --- | --- |
| LLGDFFR(cit)KSKEKIGKEFKR(cit)IVQR(cit)IKDFLR(cit)NLVPR(cit)TES [cit-LL37, LL37 citrullinated at all five arginine sites] | did not stimulate any IFN-I production by pDCs | no IFN-α response | +1 | 52 | abolishes the B-cell maturation into plasma cells | 0.54 | 2.48 | – | – | – | – | – | – | – | – |
| L*LGDFFRK*SK*EK*IGKEFK*RIVQRIK*DFLRNLVPRTES [carb-LL37] | – | no IFN-α response | +1 | 32 | maintained LL37 ability to stimulate the B-cells to mature into plasma cells | 0.39 | 6.57 | significant proliferation of SLE CD4 T-cells, although less efficiently than cit-LL37 | 18.3 | correlated moderately | moderate but significant correlation | less efficient antigen compared to cit-LL37 | 14.73 | 7.27 | 28.09 |
